Earlier results on four molecules are cited in patent US11071785B2, “Liquid formulation of long-lasting protein conjugate comprising the oxyntomodulin and an immunoglobulin Fc region” (HANMI PHARM, CO., LTD, priority 2012, dated 2021).

For series [1] the following is noted: when administered for 1 year.
For series [2] the following is noted: in vivo.

For the molecule `CCCCCCCCCCC[C@@H](C[C@@H]1OC(=O)[C@H]1CCCCCC)OC(=O)[C@H](CC(C)C)NC=O` [Orlistat], the weight reduction effect result in series [1] is recorded as “about 4 kg”.
`Cc1c(C(=O)NN2CCCCC2)nn(-c2ccc(Cl)cc2Cl)c1-c1ccc(Cl)cc1` [Rimonabant]: the side effects reported result in series [2] is on record as “disorders of the central nervous system”.
On to Contrave, for which the side effects reported result in series [2] is “cardiovascular side effects”.
Consider `CC(C)CC(N(C)C)C1(c2ccc(Cl)cc2)CCC1` (stereo not shown) [Sibutramine], for which the side effects reported result in series [2] is given as “cardiovascular side effects”.
